Measurements reported in PubChem BioAssay (NCI).
“And” between values parts separate entries of the source, which are not always exact repeats. Equal entries are not always repeated.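 Protocol summary: plate cells (96-well), add compound at 5 concentrations, incubate 48 h, interpolate endpoints linearly. GI50 = concentration required for 50% inhibition of growth. TGI: concentration producing complete growth inhibition.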

Columns and labels:
Test in all cases: NCI tumour cell line growth inhibition, 48 h
UO-31 renal = test system: UO-31 renal
OVCAR-3 ovarian = test system: OVCAR-3 ovarian
SF-295 CNS = test system: SF-295 CNS
OVCAR-5 ovarian = test system: OVCAR-5 ovarian
KM12 colon = test system: KM12 colon
HL-60(TB) leukemia = test system: HL-60(TB) leukemia
MDA-MB-435 = test system: MDA-MB-435
COLO 205 colon = test system: COLO 205 colon
SNB-75 CNS = test system: SNB-75 CNS
OVCAR-4 ovarian = test system: OVCAR-4 ovarian

| Compound | TGI (UO-31 renal) | TGI (OVCAR-3 ovarian) [µM] | TGI (SF-295 CNS) | TGI (OVCAR-5 ovarian) [µM] | TGI (KM12 colon) | TGI (HL-60(TB) leukemia) [µM] | TGI (MDA-MB-435) [µM] | TGI (COLO 205 colon) [µM] | TGI (SNB-75 CNS) | TGI (OVCAR-4 ovarian) | GI50 (COLO 205 colon) | GI50 (SNB-75 CNS) [µM] | GI50 (UO-31 renal) [µM] | GI50 (OVCAR-3 ovarian) [µM] | GI50 (OVCAR-4 ovarian) [µM] | GI50 (SF-295 CNS) | GI50 (OVCAR-5 ovarian) | GI50 (KM12 colon) [µM] | GI50 (HL-60(TB) leukemia) [µM] | GI50 (MDA-MB-435) |
| --- | --- | --- | --- | --- | --- | --- | --- | --- | --- | --- | --- | --- | --- | --- | --- | --- | --- | --- | --- | --- |
| C=CCNC(=O)CN(CC(=O)OC)C1CCCCC1N(CC(=O)OC)CC(=O)OC (stereo not given) | > 100 µM | > 100 | > 100 µM | > 100 | > 100 µM | > 100 | > 100 |  |  |  |  |  |  |  |  |  |  |  |  |  |
| O=C(O)C12CC3CC(C1)C2C=C3P(=O)(O)O (stereo not given) | > 100 µM | > 100 | > 100 µM | > 100 | > 100 µM | > 100 |  | > 100 | > 100 µM | > 100 µM |  |  |  |  |  |  |  |  |  |  |
| COc1cc(/C=C/C2=C(C#N)C(=O)OC2(C)C)ccc1O | > 100 µM | > 100 | > 100 µM | > 100 | > 100 µM | > 100 |  | > 100 | > 100 µM |  |  |  |  |  |  |  |  |  |  |  |
| Nc1n[nH]c(CCCCCCCc2nc(N)n[nH]2)n1 | > 100 µM | > 100 |  | > 100 | > 100 µM | > 100 |  |  | > 100 µM | > 100 µM |  |  |  |  |  |  |  |  |  |  |
| Cc1c(C2=NN=C(N=Nc3c(O)cccc3O)/C2=C/c2ccccc2)c(=O)n(-c2ccccc2)n1C | > 100 µM | > 100 | > 100 µM | > 100 | > 100 µM | > 100 |  | > 100 | > 100 µM | > 100 µM |  |  |  |  |  |  |  |  |  |  |
| CC(C)=CC(=O)OC1C2C(C)=CC(O)C(O)C2(C)C2C3(O)OCC24C(CC(=O)OC14)C(C)C3O (stereo not given) | 8.57 µM | 0.171 | 0.81 µM | 3.79 | 0.622 µM | 0.409 |  | 2.77 | 0.693 µM | 0.749 µM |  |  |  |  |  |  |  |  |  |  |
| Cc1cn(C2CC(O)C(Cn3nncc3Cn3ncc(=O)[nH]c3=O)O2)c(=O)[nH]c1=O (stereo not given) | > 100 µM | > 100 | > 100 µM | > 100 | > 100 µM |  | > 100 | > 100 |  | > 100 µM |  |  |  |  |  |  |  |  |  |  |
| Cc1cccc(CNc2ncnc3[nH]ncc23)c1 | > 100 µM | > 100 | > 100 µM | > 100 | > 100 µM | > 100 | > 100 | > 100 | > 100 µM | > 100 µM |  |  |  |  |  |  |  |  |  |  |
| O=C1c2ccccc2C(=O)c2c1cc1c(c2[N+](=O)[O-])OCO1 | 6.02 µM | 4.77 | 8.82 µM | 8.74 | 5.94 µM | 8.94 | 9.58 | 16.8 | 3.46 µM | 4.85 µM | 3.46 µM | 1.44 | 1.54 | 1.43 | 1.2 | 2.27 µM | 2.39 µM | 1.45 | 0.465 | 2.91 µM |
| O=C(O)CCCc1ccccc1 | 715 µM and > 1000 µM | > 1000 | 738 µM and > 1000 µM | > 1000 | 366 µM and > 1000 µM | > 1000 | > 1000 | > 1000 | 327 µM and > 1000 µM | 184 µM and > 1000 µM | 363 µM and > 1000 µM |  | > 1000 | 537 |  | 370 µM and > 1000 µM | 456 µM and > 1000 µM | > 1000 | > 1000 | 292 µM and > 1000 µM |
| CCCCCCCCCCCCC(O)C(=O)O (stereo not given) | > 100 µM | > 100 | > 100 µM | > 100 | > 100 µM | > 100 | > 100 | > 100 | > 100 µM | > 100 µM |  |  |  |  |  |  |  |  |  |  |
